Results reported in PubChem BioAssay AID1963867 (Molecular Pharmacology Branch, DTP, NCI, 2024).

System: KRAS-mutant PDC tumor spheroid with HUVEC/MSC, viability
Assay: Anticancer human tumor 327498-153-R-J2-PDC patient-derived uterine carcinosarcoma cell line growth inhibition [KRAS2]
Settings: for IC50: curve of first compound; for viability, T/C: stronger effect = lower value
Method in brief: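 Combination screen of spheroid viability in tumor-cell co-cultures with endothelial (HUVEC) and mesenchymal stem cell stroma. Each agent was tested in half-log dilutions, topping at clinical Cmax or at 10 microM without a known Cmax.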

[1] = second compound 0.0316 µM, first compound 0.0316 µM
[2] = second compound 0.0316 µM, first compound 0.1 µM
[3] = second compound 0.0316 µM, first compound 0.316 µM
[4] = second compound 0.0316 µM, first compound 1 µM
[5] = second compound 0.0316 µM, first compound 3.16 µM
[6] = second compound 0.0316 µM, first compound 10 µM
[7] = second compound 0.1 µM, first compound 0.0316 µM
[8] = second compound 0.1 µM, first compound 0.1 µM
[9] = second compound 0.1 µM, first compound 0.316 µM
[10] = second compound 0.1 µM, first compound 1 µM
[11] = second compound 0.1 µM, first compound 3.16 µM
[12] = second compound 0.1 µM, first compound 10 µM
[13] = second compound 0.316 µM, first compound 0.0316 µM
[14] = second compound 0.316 µM, first compound 0.1 µM
[15] = second compound 0.316 µM, first compound 0.316 µM
[16] = second compound 0.316 µM, first compound 1 µM
[17] = second compound 0.316 µM, first compound 3.16 µM
[18] = second compound 0.316 µM, first compound 10 µM
[19] = second compound 1 µM, first compound 0.0316 µM
[20] = second compound 1 µM, first compound 0.1 µM
[21] = second compound 1 µM, first compound 0.316 µM
[22] = second compound 1 µM, first compound 1 µM
[23] = second compound 1 µM, first compound 3.16 µM
[24] = second compound 1 µM, first compound 10 µM
[25] = second compound 3.16 µM, first compound 0.0316 µM
[26] = second compound 3.16 µM, first compound 0.1 µM
[27] = second compound 3.16 µM, first compound 0.316 µM
[28] = second compound 3.16 µM, first compound 1 µM
[29] = second compound 3.16 µM, first compound 3.16 µM
[30] = second compound 3.16 µM, first compound 10 µM
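Also: spheroids exposed to agents for seven days before reading.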
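For viability, T/C in this document: 100% = DMSO vehicle wells so lower means fewer viable cells.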

SMILES: COc1cc(Nc2ncc3c(n2)-c2ccc(Cl)cc2C(c2c(F)cccc2OC)=NC3)ccc1C(=O)O + C=CC(=O)N1CCN(c2nc(OCC3CCCN3C)nc3c2CCN(c2cccc4cccc(C)c24)C3)CC1CC#N
- IC50 (second compound 0.0316 µM): < 31.6 nM
- IC50 (second compound 0.1 µM): < 31.6 nM
- IC50 (second compound 0.316 µM): < 31.6 nM
- IC50 (second compound 1 µM): < 31.6 nM
- IC50 (second compound 3.16 µM): < 31.6 nM
- viability, T/C [1]: 13.7%
- viability, T/C [2]: 11.9%
- viability, T/C [3]: 11.5%
- viability, T/C [4]: 9.41%
- viability, T/C [5]: 11.3%
- viability, T/C [6]: 10.4%
- viability, T/C [7]: 12.7%
- viability, T/C [8]: 11.3%
- viability, T/C [9]: 10.2%
- viability, T/C [10]: 9.02%
- viability, T/C [11]: 12.1%
- viability, T/C [12]: 10.4%
- viability, T/C [13]: 10.2%
- viability, T/C [14]: 8.78%
- viability, T/C [15]: 8.53%
- viability, T/C [16]: 8.2%
- viability, T/C [17]: 9.27%
- viability, T/C [18]: 9.77%
- viability, T/C [19]: 10.3%
- viability, T/C [20]: 8.65%
- viability, T/C [21]: 7.42%
- viability, T/C [22]: 6.83%
- viability, T/C [23]: 7.63%
- viability, T/C [24]: 6.7%
- viability, T/C [25]: 2.49%
- viability, T/C [26]: 2.27%
- viability, T/C [27]: 1.67%
- viability, T/C [28]: 0.13%
- viability, T/C [29]: 0.95%
- viability, T/C [30]: 0.23%

SMILES: COc1cc2nccc(Oc3ccc(NC(=O)C4(C(=O)Nc5ccc(F)cc5)CC4)cc3)c2cc1OC + C=CC(=O)N1CCN(c2nc(OCC3CCCN3C)nc3c2CCN(c2cccc4cccc(C)c24)C3)CC1CC#N
- IC50 (second compound 0.0316 µM): 1290 nM
- IC50 (second compound 0.1 µM): < 31.6 nM
- IC50 (second compound 0.316 µM): < 31.6 nM
- IC50 (second compound 1 µM): < 31.6 nM
- IC50 (second compound 3.16 µM): < 31.6 nM
- viability, T/C [1]: 60.9%
- viability, T/C [2]: 55.4%
- viability, T/C [3]: 55.6%
- viability, T/C [4]: 63.9%
- viability, T/C [5]: 18.4%
- viability, T/C [6]: 0.28%
- viability, T/C [7]: 48.4%
- viability, T/C [8]: 50%
- viability, T/C [9]: 50.4%
- viability, T/C [10]: 47.8%
- viability, T/C [11]: 17.3%
- viability, T/C [12]: 0.84%
- viability, T/C [13]: 45%
- viability, T/C [14]: 48.5%
- viability, T/C [15]: 52.1%
- viability, T/C [16]: 45%
- viability, T/C [17]: 15%
- viability, T/C [18]: 0.62%
- viability, T/C [19]: 44.1%
- viability, T/C [20]: 40.3%
- viability, T/C [21]: 39.3%
- viability, T/C [22]: 43.3%
- viability, T/C [23]: 11.1%
- viability, T/C [24]: 0.15%
- viability, T/C [25]: 0.22%
- viability, T/C [26]: 0.17%
- viability, T/C [27]: 0.17%
- viability, T/C [28]: 0.16%
- viability, T/C [29]: 0.13%
- viability, T/C [30]: 0.24%
